Source: ChEMBL document CHEMBL5137008, “Recent advances of antitumor shikonin/alkannin derivatives: A comprehensive overview focusing on structural classification, synthetic approaches, and mechanisms of action” (Eur J Med Chem, 2022)

Columns and labels:
Ca9-22 [1] = experiment: Cytotoxicity against human Ca9-22 cells assessed as reduction in cell viability incubated for 24 hrs by MTT assay; assay type: functional, cell-based; settings: Ca9-22, 24 h
Ca9-22 [2] = experiment: Cytotoxicity against human Ca9-22 cells assessed as reduction in cell viability incubated for 48 hrs by MTT assay; assay type: functional, cell-based; settings: Ca9-22, 48 h
B16-F10 [3] = experiment: Anticancer activity against mouse B16-F10 cells assessed as inhibition of cell proliferation incubated for 48 hrs by MTT assay; assay type: functional, cell-based; settings: B16-F10, 48 h
MG-63 [4] = experiment: Anticancer activity against human MG-63 cells assessed as inhibition of cell proliferation incubated for 48 hrs by MTT assay; assay type: functional, cell-based; settings: MG-63, 48 h
A549 [5] = experiment: Anticancer activity against human A549 cells assessed as inhibition of cell proliferation incubated for 48 hrs by MTT assay; assay type: functional, cell-based; settings: A549, 48 h
[6] = Inhibition of bovine brain tubulin polymerization preincubated with compound followed by GTP addition and measured after 20 mins by turbidimetry-based spectrophotometric method; parameters: species or system Bos taurus
A549 [7] = experiment: Anticancer activity against human A549 cells assessed as inhibition of cell growth incubated for 72 hrs by MTT assay; assay type: functional, cell-based; settings: A549, 72 h
A549 [8] = experiment: Antiproliferative activity against human A549 cells assessed as reduction in cell viability incubated for 24 hrs by MTT assay; assay type: functional, cell-based; settings: A549, 24 h
HeLa [9] = experiment: Antiproliferative activity against human HeLa cells assessed as reduction in cell viability incubated for 24 hrs by MTT assay; assay type: functional, cell-based
HepG2 [10] = experiment: Antiproliferative activity against human HepG2 cells assessed as reduction in cell viability incubated for 24 hrs by MTT assay; assay type: functional, cell-based; settings: HepG2, 24 h
[11] = Cytotoxicity against human L02 cells assessed as reduction in cell viability incubated for 24 hrs by MTT assay; assay type: toxicity, cell-based
[12] = Anticancer activity against human A875 cells assessed as inhibition of cell growth incubated for 24 hrs by MTT assay; assay type: functional, cell-based; settings: A875, 24 h
[13] = Cytotoxicity against human L02 cells assessed as inhibition of cell growth incubated for 24 hrs by MTT assay; assay type: toxicity, cell-based
[14] = Antitubulin activity against bovine brain tubulin polymerization preincubated with compound followed by GTP addition and measured after 20 mins by turbidimetry-based spectrophotometric method; parameters: species or system Bos taurus
HeLa [15] = experiment: Antiproliferative activity against human HeLa cells assessed as inhibition of cell proliferation incubated for 20 hrs by MTT assay; assay type: functional, cell-based
HepG2 [16] = experiment: Antiproliferative activity against human HepG2 cells assessed as inhibition of cell proliferation incubated for 20 hrs by MTT assay; assay type: functional, cell-based; settings: HepG2, 20 h
MCF7 [17] = experiment: Antiproliferative activity against human MCF7 cells assessed as inhibition of cell proliferation incubated for 20 hrs by MTT assay; assay type: functional, cell-based; settings: MCF7, 20 h
[18] = Antiproliferative activity against human BGC cells assessed as inhibition of cell proliferation incubated for 20 hrs by MTT assay; assay type: functional, cell-based
A549 [19] = experiment: Antiproliferative activity against human A549 cells assessed as inhibition of cell proliferation incubated for 20 hrs by MTT assay; assay type: functional, cell-based; settings: A549, 20 h
L02 = experiment: Antiproliferative activity against human L02 cells assessed as inhibition of cell proliferation incubated for 20 hrs by MTT assay; assay type: functional, cell-based; settings: L02, 20 h
HepG2 [20] = experiment: Antiproliferative activity against human HepG2 cells assessed as inhibition of cell proliferation incubated for 24 hrs by MTT assay; assay type: functional, cell-based; settings: HepG2, 24 h
A549 [21] = experiment: Antiproliferative activity against human A549 cells assessed as inhibition of cell proliferation incubated for 24 hrs by MTT assay; assay type: functional, cell-based; settings: A549, 24 h
MCF7 [22] = experiment: Antiproliferative activity against human MCF7 cells assessed as inhibition of cell proliferation incubated for 24 hrs by MTT assay; assay type: functional, cell-based; settings: MCF7, 24 h
SCC-4 = experiment: Antiproliferative activity against human SCC-4 cells assessed as inhibition of cell proliferation incubated for 24 hrs by MTT assay; assay type: functional, cell-based; settings: SCC-4, 24 h
MCF7 [23] = experiment: Antiproliferative activity against human MCF7 cells assessed as inhibition of cell growth incubated for 24 hrs in presence of foetal bovine serum by MTT assay; assay type: functional, cell-based; settings: MCF7, 24 h
MDA-MB-468 = experiment: Antiproliferative activity against human MDA-MB-468 cells assessed as inhibition of cell growth incubated for 24 hrs in presence of foetal bovine serum by MTT assay; assay type: functional, cell-based; settings: MDA-MB-468, 24 h
A549 [24] = experiment: Antiproliferative activity against human A549 cells assessed as inhibition of cell growth incubated for 24 hrs in presence of foetal bovine serum by MTT assay; assay type: functional, cell-based; settings: A549, 24 h
[25] = Cytotoxicity against human HEK293T cells assessed as inhibition of cell growth incubated for 24 hrs in presence of foetal bovine serum by MTT assay; assay type: toxicity, cell-based, HEK-293T
MDA-MB-436 = experiment: Antiproliferative activity against human MDA-MB-436 cells assessed as inhibition of cell growth incubated for 24 hrs in presence of foetal bovine serum by MTT assay; assay type: functional, cell-based; settings: MDA-MB-436, 24 h
HeLa [26] = experiment: Antiproliferative activity against human HeLa cells assessed as inhibition of cell growth incubated for 24 hrs by MTT assay; assay type: functional, cell-based
MDA-MB-231 [27] = experiment: Antiproliferative activity against human MDA-MB-231 cells assessed as inhibition of cell growth incubated for 24 hrs by MTT assay; assay type: functional, cell-based; settings: MDA-MB-231, 24 h
A549 [28] = experiment: Antiproliferative activity against human A549 cells assessed as inhibition of cell growth incubated for 24 hrs by MTT assay; assay type: functional, cell-based; settings: A549, 24 h
MDA-MB-231 [29] = experiment: Antiproliferative activity against human MDA-MB-231 cells assessed as inhibition of cell proliferation incubated for 24 hrs by CCK-8 assay; assay type: functional, cell-based; settings: MDA-MB-231, 24 h
MCF7 [30] = experiment: Antiproliferative activity against human MCF7 cells assessed as inhibition of cell proliferation incubated for 24 hrs by CCK-8 assay; assay type: functional, cell-based; settings: MCF7, 24 h
A549 [31] = experiment: Antiproliferative activity against human A549 cells assessed as inhibition of cell proliferation incubated for 24 hrs by CCK-8 assay; assay type: functional, cell-based; settings: A549, 24 h
HCT-8 = experiment: Antiproliferative activity against human HCT-8 cells assessed as inhibition of cell proliferation incubated for 24 hrs by CCK-8 assay; assay type: functional, cell-based; settings: HCT-8, 24 h
HeLa [32] = experiment: Antiproliferative activity against human HeLa cells assessed as inhibition of cell proliferation incubated for 24 hrs by CCK-8 assay; assay type: functional, cell-based
MG-63 [33] = experiment: Antiproliferative activity against human MG-63 cells incubated for 24 hrs by MTT assay; assay type: functional, cell-based; settings: MG-63, 24 h
B16-F10 [34] = experiment: Antiproliferative activity against mouse B16-F10 cells incubated for 24 hrs by MTT assay; assay type: functional, cell-based; settings: B16-F10, 24 h
[35] = Cytotoxicity against human L02 incubated for 24 hrs by MTT assay; assay type: toxicity, cell-based; settings: L02 cells
[36] = Cytotoxicity against African green monkey Vero cells incubated for 24 hrs by MTT assay; assay type: toxicity, cell-based, Chlorocebus sabaeus
[37] = Cytotoxicity against human MCF-10A incubated for 24 hrs by MTT assay; assay type: toxicity, cell-based; settings: MCF-10A cells
HCT-15 = experiment: Anticancer activity against human HCT-15 cells incubated for 72 hrs by MTT assay; assay type: functional, cell-based; settings: HCT-15, 72 h
MGC-803 = experiment: Anticancer activity against human MGC-803 cells incubated for 72 hrs by MTT assay; assay type: functional, cell-based; settings: MGC-803, 72 h
SK-BR-3 = experiment: Antiproliferative activity against human SK-BR-3 cells assessed as inhibition of cell growth incubated for 24 hrs in presence of foetal bovine serum by MTT assay; assay type: functional, cell-based; settings: SK-BR-3, 24 h
HeLa [38] = experiment: cells; settings: Homo sapiens, 24 h

- IC50 (B16-F10 [3]): 3.72 µM
- IC50 (A549 [5]): 5.06 µM
- IC50 [6]: 30.2 µM
- IC50 (A549 [7]): 1800 nM
- IC50 (A549 [8]): 1710 nM
- IC50 (HeLa [9]): 2820 nM
- IC50 (HepG2 [10]): 1290 nM
- IC50 [14]: 15.2 µM
- IC50 (HeLa [15]): 3.11 µM
- IC50 (HepG2 [16]): 920 nM
- IC50 (MCF7 [17]): 1030 nM
- IC50 (A549 [19]): 2510 nM
- IC50 (HepG2 [20]): 9.36 µM
- IC50 (A549 [21]): 3.13 µM
- IC50 (MCF7 [22]): 4.99 µM
- IC50 (MCF7 [23]): 4.57 µM
- IC50 (MDA-MB-468): 3.28 µM
- IC50 (A549 [24]): 11.7 µM
- IC50 (MDA-MB-436): 3.61 µM
- IC50 (HeLa [26]): 6.5 µM
- IC50 (MDA-MB-231 [27]): 8.98 µM
- IC50 (A549 [28]): 10.4 µM
- IC50 (MDA-MB-231 [29]): 7.62 µM
- IC50 (MCF7 [30]): 9.32 µM
- IC50 (A549 [31]): 7.73 µM
- IC50 (HCT-8): 9.2 µM
- IC50 (HeLa [32]): 11.1 µM
- IC50 (B16-F10 [34]): 17.9 µM
- IC50 (HCT-15): 940 nM
- IC50 (MGC-803): 1280 nM
- IC50 (SK-BR-3): 3.75 µM
- IC50 (HeLa [38]): 4.8 µM
Compound: CC(C)=CC[C@@H](O)C1=CC(=O)c2c(O)ccc(O)c2C1=O [SHIKONIN]
- IC50 (Ca9-22 [1]): 13.6 µM
- IC50 (Ca9-22 [2]): 12.8 µM
- IC50 (MG-63 [4]): 5.67 µM
- IC50 at 24 h [11]: 10.5 µM
- IC50 [12]: 460 nM
- IC50 at 24 h [13]: 3.26 µM
- IC50 [18]: 2200 nM
- IC50 (L02): 65.3 µM
- IC50 (SCC-4): 10.1 µM
- IC50 at 24 h [25]: 9.27 µM
- IC50 (MG-63 [33]): 7.36 µM
- IC50 at 24 h [35]: 83.8 µM
- IC50 at 24 h [36]: 6.76 µM
- IC50 at 24 h [37]: 93.4 µM
